According to patent US12559492B2, “BRAF degraders” (C4 Therapeutics, Inc., priority 2020, dated 2026):

Molecular target: BRAF^V600E protein (Homo sapiens, UniProt P15056, V600E)
Test: HiBiT cellular BRAF V600E degradation assay
Type: cell-based
Conditions: 24 h incubation; for DC50: A375.10 cells (HiBiT tag knocked in at N-terminal of BRAF V600E), concentration at which 50% of total cellular BRAF V600E is degraded; for Emax: A375.10 cells, Emax = amount of residual protein remaining in the cell after compound treatment, read-out: HiBit 24 h Emax

Chain of BRAF^V600E protein (P15056 whole entry V600E): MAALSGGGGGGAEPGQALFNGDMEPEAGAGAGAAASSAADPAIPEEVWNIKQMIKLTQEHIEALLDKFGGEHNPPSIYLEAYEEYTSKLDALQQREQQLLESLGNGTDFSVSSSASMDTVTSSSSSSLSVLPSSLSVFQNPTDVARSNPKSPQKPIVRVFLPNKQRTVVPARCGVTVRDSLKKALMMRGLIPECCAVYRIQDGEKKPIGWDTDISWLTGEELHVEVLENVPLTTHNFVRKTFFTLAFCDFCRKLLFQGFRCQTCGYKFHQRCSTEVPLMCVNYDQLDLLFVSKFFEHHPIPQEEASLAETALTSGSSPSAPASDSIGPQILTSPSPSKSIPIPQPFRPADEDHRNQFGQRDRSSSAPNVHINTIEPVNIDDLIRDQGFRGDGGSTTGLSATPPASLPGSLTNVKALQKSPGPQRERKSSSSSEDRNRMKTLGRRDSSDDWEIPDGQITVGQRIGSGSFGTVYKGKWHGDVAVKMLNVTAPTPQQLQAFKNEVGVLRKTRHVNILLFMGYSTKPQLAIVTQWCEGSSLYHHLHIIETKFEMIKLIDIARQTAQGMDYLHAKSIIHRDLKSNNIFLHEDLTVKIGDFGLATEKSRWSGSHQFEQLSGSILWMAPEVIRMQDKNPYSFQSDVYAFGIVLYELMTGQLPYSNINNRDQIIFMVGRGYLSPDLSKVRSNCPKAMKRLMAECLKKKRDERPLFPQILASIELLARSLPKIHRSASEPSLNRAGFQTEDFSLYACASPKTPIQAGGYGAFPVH

Compound | DC50 | Emax
CCN(C)S(=O)(=O)Nc1ccc(F)c(C(=O)c2c[nH]c3ncc(-c4ccc(N5CCN(C(=O)CC6(O)CCN(c7ccc(NC8CCC(=O)NC8=O)cc7F)C6)CC5)cc4)cc23)c1F (centres unmarked) [Example 87, 5-[4-[4-[2-[1-[4-[(2,6-dioxo-3-piperidyl)amino]-2-fluoro-phenyl]-3-hydroxy-pyrrolidin-3-yl]acetyl]piperazin-1-yl]phenyl]-3-[3-[[ethyl(methyl)sulfamoyl]amino]-2,6-difluoro-benzoyl]-1H-pyrrolo[2,3-b]pyridine] | 13.3 nM | 9.64%
CCN(C)S(=O)(=O)Nc1ccc(F)c(C(=O)c2c[nH]c3ncc(-c4ccc(N5CCN(C(=O)CC6(O)CCN(c7ccc(NC8CCC(=O)NC8=O)cn7)CC6)CC5)cc4)cc23)c1F (centres unmarked) [Example 88, 5-[4-[4-[2-[1-[5-[(2,6-dioxo-3-piperidyl)amino]-2-pyridyl]-4-hydroxy-4-piperidyl]acetyl]piperazin-1-yl]phenyl]-3-[3-[[ethyl(methyl)sulfamoyl]amino]-2,6-difluoro-benzoyl]-1H-pyrrolo[2,3-b]pyridine] | 15.7 nM | 22.2%
CCN(C)S(=O)(=O)Nc1ccc(F)c(C(=O)c2c[nH]c3ncc(-c4ccc(N5CCN(C(=O)CC6(O)CCN(c7ccc(NC8CCC(=O)NC8=O)cc7F)CC6)CC5)cc4)cc23)c1F (centres unmarked) [Example 89, 5-[4-[4-[2-[1-[4-[(2,6-dioxo-3-piperidyl)amino]-2-fluoro-phenyl]-4-hydroxy-4-piperidyl]acetyl]piperazin-1-yl]phenyl]-3-[3-[[ethyl(methyl)sulfamoyl]amino]-2,6-difluoro-benzoyl]-1H-pyrrolo[2,3-b]pyridine] | 1.4 nM | 8.6%
CCN(C)S(=O)(=O)Nc1ccc(F)c(C(=O)c2c[nH]c3ncc(-c4ccc(N5CCN(C(=O)CC6(O)CCN(c7ncc(NC8CCC(=O)NC8=O)cc7F)CC6)CC5)cc4)cc23)c1F (centres unmarked) [Example 90, 5-[4-[4-[2-[1-[5-[(2,6-dioxo-3-piperidyl)amino]-3-fluoro-2-pyridyl]-4-hydroxy-4-piperidyl]acetyl]piperazin-1-yl]phenyl]-3-[3-[[ethyl(methyl)sulfamoyl]amino]-2,6-difluoro-benzoyl]-1H-pyrrolo[2,3-b]pyridine] | 2.13 nM | 7.44%
CCN(C)S(=O)(=O)Nc1ccc(F)c(C(=O)c2c[nH]c3ncc(-c4ccc(C5=CCN(C(=O)CC6CCN(c7ccc(NC8CCC(=O)NC8=O)cc7)CC6)CC5)cc4)cc23)c1F (centres unmarked) [Example 92, 5-[4-[1-[2-[1-[4-[(2,6-dioxo-3-piperidyl)amino]phenyl]-4-piperidyl]acetyl]-3,6-dihydro-2H-pyridin-4-yl]phenyl]-3-[3-[[ethyl(methyl)sulfamoyl]amino]-2,6-difluoro-benzoyl]-1H-pyrrolo[2,3-b]pyridine] | 22.9 nM | 4.78%
CCN(C)S(=O)(=O)Nc1ccc(F)c(C(=O)c2c[nH]c3ncc(-c4cc(F)c(N5CCN(C(=O)CN6CCC(c7ccc(NC8CCC(=O)NC8=O)cc7)CC6)CC5)c(F)c4)cc23)c1F (centres unmarked) [Example 93, 5-[4-[4-[2-[4-[4-[(2,6-dioxo-3-piperidyl)amino]phenyl]-1-piperidyl]acetyl]piperazin-1-yl]-3,5-difluoro-phenyl]-3-[3-[[ethyl(methyl)sulfamoyl]amino]-2,6-difluoro-benzoyl]-1H-pyrrolo[2,3-b]pyridine] | 23.8 nM | 8.31%
CCN(C)S(=O)(=O)Nc1ccc(F)c(C(=O)c2c[nH]c3ncc(-c4ccc(CN5CCN(CC(=O)N6CCC(c7ccc(NC8CCC(=O)NC8=O)cc7)CC6)CC5)cc4)cc23)c1F (centres unmarked) [Example 94, 5-[4-[[4-[2-[4-[4-[(2,6-dioxo-3-piperidyl)amino]phenyl]-1-piperidyl]-2-oxo-ethyl]piperazin-1-yl]methyl]phenyl]-3-[3-[[ethyl(methyl)sulfamoyl]amino]-2,6-difluoro-benzoyl]-1H-pyrrolo[2,3-b]pyridine] | 21.2 nM | 12.8%
CCN(C)S(=O)(=O)Nc1ccc(F)c(C(=O)c2c[nH]c3ncc(-c4ccc(CN5CCN(C(=O)CN6CCN(c7ccc(NC8CCC(=O)NC8=O)cc7)CC6)CC5)cc4)cc23)c1F (centres unmarked) [Example 95, 5-[4-[[4-[2-[4-[4-[(2,6-dioxo-3-piperidyl)amino]phenyl]piperazin-1-yl]acetyl]piperazin-1-yl]methyl]phenyl]-3-[3-[[ethyl(methyl)sulfamoyl]amino]-2,6-difluoro-benzoyl]-1H-pyrrolo[2,3-b]pyridine] | 30.4 nM | 12.8%
CCN(C)S(=O)(=O)Nc1cccc(C(=O)c2c[nH]c3ncc(-c4cnc(N5CCN(C(=O)CN6CCC(c7ccc(NC8CCC(=O)NC8=O)cc7)CC6)CC5)nc4)cc23)c1F (centres unmarked) [Example 96, 5-[2-[4-[2-[4-[4-[(2,6-dioxo-3-piperidyl)amino]phenyl]-1-piperidyl]acetyl]piperazin-1-yl]pyrimidin-5-yl]-3-[3-[[ethyl(methyl)sulfamoyl]amino]-2-fluoro-benzoyl]-1H-pyrrolo[2,3-b]pyridine] | 9.43 nM | 8.26%
CCN(C)S(=O)(=O)Nc1cccc(C(=O)c2c[nH]c3ncc(-c4cnc(N5CCN(C(=O)CN6CCC(c7ccc(NC8CCC(=O)NC8=O)cc7F)CC6)CC5)nc4)cc23)c1F (centres unmarked) [Example 97, 5-[2-[4-[2-[4-[4-[(2,6-dioxo-3-piperidyl)amino]-2-fluoro-phenyl]-1-piperidyl]acetyl]piperazin-1-yl]pyrimidin-5-yl]-3-[3-[[ethyl(methyl)sulfamoyl]amino]-2-fluoro-benzoyl]-1H-pyrrolo[2,3-b]pyridine] | 6.62 nM | 7.94%
CCN(C)S(=O)(=O)Nc1cccc(C(=O)c2c[nH]c3ncc(-c4cnc(N5CCN(C(=O)CC6CCN(c7ccc(NC8CCC(=O)NC8=O)cc7F)CC6)CC5)nc4)cc23)c1F (centres unmarked) [Example 98, 5-[2-[4-[2-[1-[4-[(2,6-dioxo-3-piperidyl)amino]-2-fluoro-phenyl]-4-piperidyl]acetyl]piperazin-1-yl]pyrimidin-5-yl]-3-[3-[[ethyl(methyl)sulfamoyl]amino]-2-fluoro-benzoyl]-1H-pyrrolo[2,3-b]pyridine] | 4.67 nM | 7.42%
CCN(C)S(=O)(=O)Nc1cccc(C(=O)c2c[nH]c3ncc(-c4cnc(N5CCN(C(=O)CC6(O)CCN(c7ccc(NC8CCC(=O)NC8=O)cc7)CC6)CC5)nc4)cc23)c1F (centres unmarked) [Example 99, 5-[2-[4-[2-[1-[4-[(2,6-dioxo-3-piperidyl)amino]phenyl]-4-hydroxy-4-piperidyl]acetyl]piperazin-1-yl]pyrimidin-5-yl]-3-[3-[[ethyl(methyl)sulfamoyl]amino]-2-fluoro-benzoyl]-1H-pyrrolo[2,3-b]pyridine] | 9.55 nM | 13.2%
CCN(C)S(=O)(=O)Nc1cccc(C(=O)c2c[nH]c3ncc(-c4cnc(N5CCN(C(=O)CN6CCC(c7ccc(NC8CCC(=O)NC8=O)cc7)C(F)(F)C6)CC5)nc4)cc23)c1F (centres unmarked) [Example 100, 5-[2-[4-[2-[4-[4-[(2,6-dioxo-3-piperidyl)amino]phenyl]-3,3-difluoro-1-piperidyl]acetyl]piperazin-1-yl]pyrimidin-5-yl]-3-[3-[[ethyl(methyl)sulfamoyl]amino]-2-fluoro-benzoyl]-1H-pyrrolo[2,3-b]pyridine] | 9.52 nM | 6.76%
